This is an account of results in patent US6066633A, “Metalloproteinase inhibitors” (Adir et Compagnie, priority 1997, dated 2000).

Assay [1] deals with neovascularisation (pseudo-vessels) from portions of thoracic aorta. Description: In Vitro Angiogenesis (thoracic aorta portions in type I collagen gel). Format: cell-based, male Fischer 344 rats. The following applies: Rattus norvegicus, 120 h, five days of culture in a medium without serum, vascular density. An excerpt:
Portions of thoracic aorta of male Fischer 344 rats aged from 8 to 12 weeks are immersed in a type I collagen gel according to the method of Nicosia et Ottinetti (1990). After five days of culture in a medium without serum, the preparations are examined using a microscope and the formation of pseudo-vessels is quantified in terms of vascular density after digitisation and image analysis.

Another assay deals with ovarian cancers. The following applies: Becket et al., DDT 1996, 1 (1), 16; cited from earlier work.
Assay [2] concerns the target T1, MMP-2 (72 kDa gelatinase A) (Homo sapiens, UniProt P08253).
T1 sequence (P08253 110-660): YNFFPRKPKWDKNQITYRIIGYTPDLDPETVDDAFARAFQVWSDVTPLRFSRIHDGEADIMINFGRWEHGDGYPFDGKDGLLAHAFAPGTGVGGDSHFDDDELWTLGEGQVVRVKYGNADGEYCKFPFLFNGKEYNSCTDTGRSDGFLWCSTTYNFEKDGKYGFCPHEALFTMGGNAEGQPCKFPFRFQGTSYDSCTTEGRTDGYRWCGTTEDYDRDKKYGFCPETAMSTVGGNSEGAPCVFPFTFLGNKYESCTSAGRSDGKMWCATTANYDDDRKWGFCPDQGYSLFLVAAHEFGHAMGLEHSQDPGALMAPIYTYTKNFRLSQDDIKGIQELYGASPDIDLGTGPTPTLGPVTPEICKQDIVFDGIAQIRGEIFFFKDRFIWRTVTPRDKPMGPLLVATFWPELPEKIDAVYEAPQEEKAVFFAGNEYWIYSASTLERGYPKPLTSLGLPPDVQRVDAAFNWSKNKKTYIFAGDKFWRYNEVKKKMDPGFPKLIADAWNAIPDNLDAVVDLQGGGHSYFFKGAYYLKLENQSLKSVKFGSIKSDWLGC
Description: Enzymatic Inhibition of Metalloproteinases (MMP-2). Format: biochemical. The following applies: 20 μM substrate, pH 7.7, 37° C., six hours; read-out: IC50 for the enzyme MMP-2. As for the experimental part:
(§1) Enzymatic Inhibition of Metalloproteinases
(§2) Four recombinant human enzymes MMP-1 (interstitial collagenase), MMP-2 (72 kDa gelatinase A), MMP-3 (stromelysin 1) and MMP-9 (92 kDa gelatinase B) are activated with APMA (4-aminophenylmercuric acetate).
(§3) The enzymatic tests are carried out using a peptido-mimetic substrate:
(§4) DnpProChaGlyCys(Me)HisAlaLys(Nma)NH2,
(§5) which is cleaved between the glycine and the cysteine to yield a fluorescent derivative (Anal. Biochem., 212, 58-64, 1993).
(§6) The reactions, carried out in a buffer of 50 mM Tris, 200 mM NaCl, 5 mM CaCl2, 0.1% Brij 35 at pH 7.7, are initiated using 20 μM substrate in a total volume of 100 μl at 37° C. The fluorescence obtained after six hours is read in a 96-well plate in a fluorimeter equipped with a combination of 340 nm and 400 nm filters for excitation and emission.

The target in the next assay is MMP-3 (stromelysin 1) (Homo sapiens, UniProt P08254). Description: Enzymatic Inhibition of Metalloproteinases (MMP-3). The class given is biochemical. The following applies: 20 μM substrate, pH 7.7, 37° C., six hours; read-out: IC50 for the enzyme MMP-3. As for the experimental part:
as §1, §2, §3, §4, §5, §6

The target in assay [3] is MMP-9 (92 kDa gelatinase B) (Homo sapiens, UniProt P14780). Description: Enzymatic Inhibition of Metalloproteinases (MMP-9). Format: biochemical. The following applies: 20 μM substrate, pH 7.7, 37° C., six hours; read-out: IC50 for the enzyme MMP-9. As for the experimental part:
as §1, §2, §3, §4, §5, §6

Assay [4] concerns the target T2, MMP-1 (interstitial collagenase) (Homo sapiens, UniProt P03956).
T2 sequence (P03956 100-469): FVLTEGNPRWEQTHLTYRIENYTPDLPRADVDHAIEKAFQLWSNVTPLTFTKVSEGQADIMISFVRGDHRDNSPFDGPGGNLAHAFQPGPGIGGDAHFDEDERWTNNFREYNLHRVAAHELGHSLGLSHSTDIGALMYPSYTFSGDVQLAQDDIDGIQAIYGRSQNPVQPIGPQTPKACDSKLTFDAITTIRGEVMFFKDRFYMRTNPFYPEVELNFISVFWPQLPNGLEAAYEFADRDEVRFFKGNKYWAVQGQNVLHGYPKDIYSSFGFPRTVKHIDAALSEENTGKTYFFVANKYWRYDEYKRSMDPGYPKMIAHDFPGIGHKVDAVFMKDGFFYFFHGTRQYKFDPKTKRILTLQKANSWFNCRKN
Put plainly: Enzymatic Inhibition of Metalloproteinases (MMP-1). Format: biochemical. The following applies: 20 μM substrate, pH 7.7, 37° C., six hours; read-out: IC50 for the enzyme MMP-1. As for the experimental part: as §1, §2, §3, §4, §5, §6

The term inhibition denotes the share of the control response that was lost under treatment. A high value points to a response far below the control. As usually defined, the IC50 is the concentration needed to halve the response being measured.

Counter-ions that a name gives are not always drawn.

Chain of MMP-9 (92 kDa gelatinase B) (P14780 107-707 limits assumed): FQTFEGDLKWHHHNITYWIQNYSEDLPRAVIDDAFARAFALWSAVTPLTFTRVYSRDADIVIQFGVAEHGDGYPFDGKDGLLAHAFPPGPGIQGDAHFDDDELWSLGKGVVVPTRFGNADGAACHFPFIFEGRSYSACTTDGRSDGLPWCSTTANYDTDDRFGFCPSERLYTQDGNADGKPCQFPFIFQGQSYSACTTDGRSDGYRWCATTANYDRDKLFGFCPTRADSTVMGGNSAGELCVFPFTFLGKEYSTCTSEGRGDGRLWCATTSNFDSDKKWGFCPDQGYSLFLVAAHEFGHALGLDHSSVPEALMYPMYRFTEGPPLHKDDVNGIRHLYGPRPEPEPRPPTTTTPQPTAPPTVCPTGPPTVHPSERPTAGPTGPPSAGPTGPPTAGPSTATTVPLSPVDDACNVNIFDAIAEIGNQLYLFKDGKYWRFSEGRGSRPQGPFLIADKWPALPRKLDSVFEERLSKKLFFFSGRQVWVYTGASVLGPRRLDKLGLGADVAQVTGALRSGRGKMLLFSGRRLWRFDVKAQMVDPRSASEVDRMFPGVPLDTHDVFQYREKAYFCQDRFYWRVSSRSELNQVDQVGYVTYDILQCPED
Chain of MMP-3 (stromelysin 1) (P08254 100-477): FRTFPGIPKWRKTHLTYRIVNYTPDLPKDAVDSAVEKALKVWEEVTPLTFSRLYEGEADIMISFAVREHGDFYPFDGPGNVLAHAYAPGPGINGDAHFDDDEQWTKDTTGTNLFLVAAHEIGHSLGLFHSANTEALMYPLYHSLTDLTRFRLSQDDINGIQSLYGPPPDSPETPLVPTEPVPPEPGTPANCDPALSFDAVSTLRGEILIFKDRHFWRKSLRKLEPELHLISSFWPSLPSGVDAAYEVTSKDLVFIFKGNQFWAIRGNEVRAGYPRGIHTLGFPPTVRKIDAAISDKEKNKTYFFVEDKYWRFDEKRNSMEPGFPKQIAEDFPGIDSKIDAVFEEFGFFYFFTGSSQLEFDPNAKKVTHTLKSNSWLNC

`COc1ccc(S(=O)(=O)N2Cc3c(c4ccccc4n3CC(=O)N(C)CCN3CCOCC3)C[C@@H]2C(=O)NO)cc1` [Example 15, 2-[(4-Methoxyphenyl)sulphonyl]-9-[N-methyl-(2-morpholin-4-ylethylcarbamoyl)methyl]-2,3,4,9-tetrahydro-1H-β-carboline-(3R)-(N-hydroxy)carboxamide Hydrochloride]: in assay [1], the inhibition at 1 µM lay in the range of 50 to 100%.

On to `CNC(=O)C(Cc1ccccc1)NC(=O)C(CC(C)C)C(CSc1cccs1)C(=O)NO` (centres unmarked) [BB94], for which, in the assay on ovarian cancers, the “anti-tumour activity in clinical use” value was “active in ovarian cancers”.

As to `COc1ccc(S(=O)(=O)N2Cc3c(c4ccccc4n3CC(=O)NCCSCCN3CCOCC3)C[C@@H]2C(=O)NO)cc1` [Example 11, 2-[(4-Methoxyphenyl)sulphonyl]-9-{[2-(2-morpholin-4-ylethylsulphanyl)ethylcarbamoyl]methyl}-2,3,4,9-tetrahydro-1H-β-carboline-(3R)-(N-hydroxy)carboxamide Hydrochloride], the results for the half-maximal inhibitory concentration (IC50) (in assay [2]; on MMP-3 (stromelysin 1); in assay [3]) were 1.6 nM, 3.1 nM and 0.1 nM, respectively.

Take `COc1ccc(S(=O)(=O)N2Cc3c(c4ccccc4n3CC(=O)NCCSCCCN3CCOCC3)C[C@@H]2C(=O)NO)cc1` [Example 13, 2-[(4-Methoxyphenyl)sulphonyl]-9-{[2-(3-morpholin-4-ylpropylsulphanyl)ethylcarbamoyl]methyl}-2,3,4,9-tetrahydro-1H-β-carboline-(3R)-(N-hydroxy)carboxamide Hydrochloride]: the inhibition at 1 µM in assay [1] fell in the range of 50 to 100%.

Turning to `COc1ccc(S(=O)(=O)N2Cc3c(c4ccccc4n3CC(=O)NCCN3CCOCC3)C[C@@H]2C(=O)NO)cc1` [Example 2, 2-[(4-Methoxyphenyl)sulphonyl]-9-[(2-morpholin-4-ylethylcarbamoyl)methyl]-2,3,4,9-tetrahydro-1H-β-carboline-(3R)-(N-hydroxy)carboxamide Acetate], the concentration for half-maximal inhibition (IC50) in assay [4] was 32.6 nM. This compound showed an inhibition at 1 µM in assay [1] of 50 to 100%.
